Assay results as given in US10292383B2, “Use of surface-reacted calcium carbonate as carrier for agrochemical compounds” (Omya International AG, priority 2015, dated 2019).

System: Plasmopara viticola
Assay: Field application trial against downy mildew on vineyard (PESSEV / PESINC assessment on leaves and bunches)
Format: in vivo
Settings: between T2 (0.021 kg DM/ha) and T3 (0.21 kg DM/ha), both on leaves and bunches
Method: The application trials were carried out in Piedmont, Italy. In these trials, three different dosage rates of three of the above-mentioned samples (SRCC1-0.5 DM, SRCC1-5 DM, SRCC1-25 DM) were applied against downy mildew on vineyard and the efficacy and selectivity thereof was evaluated. In addition, the performance in comparison to commercially available fungicides was also evaluated. […]
The efficacy against Plasmopara viticola and the selectivity on the crop of the test products SRCC1-0.5 DM and SRCC1-5 DM both applied in mixture with tribasic copper sulfate (Cupravit Bio Evoluion WG), respectively, in treatments T2 and T3, were evaluated. […]
The efficacy of SRCC1-25 DM was also evaluated in treatment T4 and compared with the reference F50 sprayed in treatment T6. […]
In this trial according to the present invention, the disease pressure was assessed through two standard parameters: • (i) PESSEV=the pest severity (i.e. the intensity) determined as infected area per bunch or leaf in %; and • (ii) PESINC=the pest incidence (i.e. the frequency) determined in % of bunches and leaves infected. […]

COc1ccc(C(=CC(=O)N2CCOCC2)c2ccc(Cl)cc2)cc1OC [dimethomorph]
dosage rate effect of active ingredient: significant dosage rate effect
